Source: patent US10611750B2, “Tetrahydroquinoline compositions as bet bromodomain inhibitors” (FORMA Therapeutics, Inc., priority 2013, dated 2020)

Tests used:
[1] = molecular target: T1, BRD4 Bromodomain 1 (BRD4 BD1) (Homo sapiens, UniProt O60885); experiment: AlphaScreen binding assay, BRD4 BD1; details: His-tagged BRD4 BD1 50 nM, biotinylated H4 (1-21) K5/8/12/16 tetra-acetylated peptide 50 nM, compounds listed under IC50 range headings
T1 construct: 44-168 and BRD4 BD2
Description: The binding of Example compounds to BRD4 Bromodomain 1 and BRD4 Bromodomain 2 was assessed using 384-well AlphaScreen assay technology. His-epitope tagged BRD4 BD144-168 and BRD4 BD2333-460 were cloned, expressed, and purified to homogeneity. BRD4 BD1 and BRD4 BD2 binding and inhibition was assessed by monitoring the engagement of biotinylated Histone H4 (1-21) K5/8/12/16 tetra-acetylated peptide with the targets using the AlphaScreen technology (PerkinElmer). Specifically, in a 384-well black or white flat bottom plate, BRD4 BD1 (50 nM final) or BRD4 BD2 (100 nM final) was combined with peptide (50 nM final for BD1 or 100 nM final for BD2) in 50 mM HEPES (pH 7.3), 100 mM NaCl, 0.1% (w/v) BSA, and 0.01% (w/v) Triton X-100 either in the presence of DMSO (final 1.25% DMSO) or compound dilution series in DMSO. Alpha streptavidin donor beads and Nickel-chelate acceptor beads were added to a final concentration of 10 μg/ml each. After a minimum of 1 hour equilibration, plates were read on a BMG PHERAstar FS multi-label reader (BMG LabTech). The half maximal inhibitory concentration (IC50) values were calculated using IDBS Activity Base software with a four parameter logistic curve fit by the equation y=A+((B−A)/(1+((C/x)^D))), wherein A denotes the bottom plateau of the curve, B denotes the top plateau of the curve, C denotes the x value at the middle of the curve, D denotes the slope factor, x denotes the original known x values, and y denotes the original known y values. Data was fitted using the Levenburg Marquardt algorithm.

[2] = test system: acute myelocytic leukemia (AML) cell line MV4-11; experiment: Oncology cell growth assay (3-day proliferation, CellTiter-Glo); assay type: cell-based; details: Homo sapiens, MV4-11, 72 h, MV4-11 cells, 3000 cells/well, compounds listed under IC50 range headings, read-out: MV411 IC50 (gIC50, inhibition of proliferation)
Description: The impact of Example compounds on cancer cell proliferation was determined using the acute myelocytic leukemia (AML) cell line MV4-11 (ATCC) in a 3-day proliferation assay. MV4-11 cells were maintained in RPMI 1640 media supplemented with 10% FBS at 37° C. and an atmosphere of 5% CO2. For compound testing, compound dilutions series were prepared in DMSO via a 3-fold serial dilution from 2 mM to 0.001 mM in 384-well white flat bottom plates. The final compound concentrations in the wells were 10, 3.3, 1.1, 0.37, 0.12, 0.041, 0.013 and 0.0045 μM. MV4-11 cells were plated at a density of 3000 cells/well in final volume of 50 μl culture media and incubated for 72 hours. […] Luminescent signal from the CellTiter-Glo assay was read on an EnVision multilabel plate reader (PerkinElmer). Values for the concentration that inhibited cell growth by 50% (gIC50) between the DMSO control and background control (no cells) were determined using IDBS Activity Base software with a four parameter logistic curve fit by the equation y=A+((B−A)/(1+((C/x)^D))), wherein A denotes the bottom plateau of the curve, B denotes the top plateau of the curve, C denotes the x value at the middle of the curve, D denotes the slope factor, x denotes the original known x values, and y denotes the original known y values. Data was fitted using the Levenburg Marquardt algorithm.

Structure (SMILES) | IC50 [1] [nM] | IC50 [2] [nM]
CC(=O)N1c2c(F)cc(-c3cn(C)nn3)c(OC3CCC3)c2CC[C@@H]1C [I-126, (S)-1-(5-cyclobutoxy-8-fluoro-2-methyl-6-(1-methyl-1H-1,2,3-triazol-4-yl)-3,4-dihydroquinolin-1(2H)-yl)ethanone] | 1000 to 10000 | > 1000
C[C@H]1CCc2c(ccc(-c3nnc(N)s3)c2OC2CCC2)N1C(=O)C1CC1 [I-127, (S)-(6-(5-amino-1,3,4-thiadiazol-2-yl)-5-cyclobutoxy-2-methyl-3,4-dihydroquinolin-1(2H)-yl)(cyclopropyl)methanone] | 100 to 1000 | < 500
C[C@H]1CCc2c(ccc(-c3c[nH]nn3)c2OC2CCC2)N1C(=O)C1CC1 [I-128, (S)-(5-cyclobutoxy-2-methyl-6-(1H-1,2,3-triazol-4-yl)-3,4-dihydroquinolin-1(2H)-yl)(cyclopropyl)methanone] | 100 to 1000 | 500 to 1000
COC(=O)N1c2ccc(-c3csc(C(N)=O)n3)c(OC3CCC3)c2CC[C@@H]1C [I-129, (S)-methyl-6-(2-carbamoylthiazol-4-yl)-5-cyclobutoxy-2-methyl-3,4-dihydroquinoline-1(2H)-carboxylate] | 100 to 1000 | < 500
CNC(=O)c1nc(-c2ccc3c(c2OC2CCC2)CC[C@H](C)N3C(=O)OC)cs1 [I-130, (S)-methyl 5-cyclobutoxy-2-methyl-6-(2-(methylcarbamoyl)thiazol-4-yl)-3,4-dihydroquinoline-1(2H)-carboxylate] | 100 to 1000 | < 500
COC(=O)N1c2ccc(-c3csc(NC(C)=O)n3)c(OC3CCC3)c2CC[C@@H]1C [I-131, (S)-methyl 6-(2-acetamidothiazol-4-yl)-5-cyclobutoxy-2-methyl-3,4-dihydroquinoline-1(2H)-carboxylate] | 1000 to 10000 | 500 to 1000
COc1cccc(Oc2c(-c3cnn(C4CCNCC4)c3)ccc3c2CC[C@H](C)N3C(C)=O)c1 [I-156, (S)-1-(5-(3-methoxyphenoxy)-2-methyl-6-(1-(piperidin-4-yl)-1H-pyrazol-4-yl)-3,4-dihydroquinolin-1(2H)-yl)ethanone] | 100 to 1000 | < 500
C[C@H]1CCc2c(ccc(-c3cnn(C4CCNCC4)c3)c2Oc2ccccc2Cl)N1C(=O)C1CC1 [I-165, (S)-(5-(2-chlorophenoxy)-2-methyl-6-(1-(piperidin-4-yl)-1H-pyrazol-4-yl)-3,4-dihydroquinolin-1(2H)-yl)(cyclopropyl)methanone] | 100 to 1000 | < 500
C[C@H]1CCc2c(ccc(-c3cnn(C4CNC4)c3)c2Oc2cccc(F)c2)N1C(=O)C1CC1 [I-173, (S)-(6-(1-(azetidin-3-yl)-1H-pyrazol-4-yl)-5-(3-fluorophenoxy)-2-methyl-3,4-dihydroquinolin-1(2H)-yl)(cyclopropyl)methanone] | 100 to 1000 | < 500
COC(=O)N1c2ccc(-c3cnn(C4CNC4)c3)c(Oc3cc(F)cc(F)c3)c2CC[C@@H]1C [I-180, (S)-methyl 6-(1-(azetidin-3-yl)-1H-pyrazol-4-yl)-5-(3,5-difluorophenoxy)-2-methyl-3,4-dihydroquinoline-1(2H)-carboxylate] | 100 to 1000 | < 500

The next lines start with the values.

IC50 [1] [nM] | IC50 [2] [nM] | Structure (SMILES)
1000 to 10000 | < 500 | C[C@H]1CCc2c(ccc(-c3cn(C)nn3)c2Oc2ccccc2C#N)N1C(=O)C1CC1 [I-154, (S)-2-(1-(cyclopropanecarbonyl)-2-methyl-6-(1-methyl-1H-1,2,3-triazol-4-yl)-1,2,3,4-tetrahydroquinolin-5-yloxy)benzonitrile]
100 to 1000 | < 500 | C[C@H]1CCc2c(ccc(-c3cnn(C4CCNCC4)c3)c2Oc2cccc(F)c2)N1C(=O)C1CC1 [I-171, (S)-cyclopropyl(5-(3-fluorophenoxy)-2-methyl-6-(1-(piperidin-4-yl)-1H-pyrazol-4-yl)-3,4-dihydroquinolin-1(2H)-yl)methanone]
100 to 1000 | < 500 | C[C@H]1CCc2c(ccc(-c3cnn(C4CCNCC4)c3)c2Oc2ccc(F)c(F)c2)N1C(=O)C1CC1 [I-172, (S)-cyclopropyl(5-(3,4-difluorophenoxy)-2-methyl-6-(1-(piperidin-4-yl)-1H-pyrazol-4-yl)-3,4-dihydroquinolin-1(2H)-yl)methanone]
100 to 1000 | < 500 | C[C@H]1CCc2c(ccc(-c3cnn(C4CNC4)c3)c2Oc2ccc(F)c(F)c2)N1C(=O)C1CC1 [I-174, (S)-(6-(1-(azetidin-3-yl)-1H-pyrazol-4-yl)-5-(3,4-difluorophenoxy)-2-methyl-3,4-dihydroquinolin-1(2H)-yl)(cyclopropyl)methanone]
100 to 1000 | < 500 | C[C@H]1CCc2c(ccc(-c3cnn(C4CNC4)c3)c2Oc2ccccc2)N1C(=O)C1CC1 [I-175, (S)-(6-(1-(azetidin-3-yl)-1H-pyrazol-4-yl)-2-methyl-5-phenoxy-3,4-dihydroquinolin-1(2H)-yl)(cyclopropyl)methanone]
100 to 1000 | < 500 | COC(=O)N1c2ccc(-c3cnn(C4CCNCC4)c3)c(Oc3ccc(F)c(F)c3)c2CC[C@@H]1C [I-176, (S)-methyl 5-(3,4-difluorophenoxy)-2-methyl-6-(1-(piperidin-4-yl)-1H-pyrazol-4-yl)-3,4-dihydroquinoline-1(2H)-carboxylate]
100 to 1000 | < 500 | COC(=O)N1c2ccc(-c3cnn(C4CNC4)c3)c(Oc3cccc(Cl)c3)c2CC[C@@H]1C [I-177, (S)-methyl 6-(1-(azetidin-3-yl)-1H-pyrazol-4-yl)-5-(3-chlorophenoxy)-2-methyl-3,4-dihydroquinoline-1(2H)-carboxylate]
100 to 1000 | < 500 | C[C@H]1CCc2c(ccc(-c3cnn(C4CNC4)c3)c2Oc2cccc(Cl)c2)N1C(=O)C1CC1 [I-178, (S)-(6-(1-(azetidin-3-yl)-1H-pyrazol-4-yl)-5-(3-chlorophenoxy)-2-methyl-3,4-dihydroquinolin-1 (2H)-yl)(cyclopropyl)methanone]
100 to 1000 | < 500 | C[C@H]1CCc2c(ccc(-c3cnn(C4CCNCC4)c3)c2Oc2cccc(Cl)c2)N1C(=O)C1CC1 [I-179, (S)-(5-(3-chlorophenoxy)-2-methyl-6-(1-(piperidin-4-yl)-1H-pyrazol-4-yl)-3,4-dihydroquinolin-1 (2H)-yl)(cyclopropyl)methanone]
100 to 1000 | < 500 | C[C@H]1CCc2c(ccc(-c3cnn(C4CNC4)c3)c2Oc2cc(F)cc(F)c2)N1C(=O)C1CC1 [I-181, (S)-(6-(1-(azetidin-3-yl)-1H-pyrazol-4-yl)-5-(3,5-difluorophenoxy)-2-methyl-3,4-dihydroquinolin-1(2H)-yl)(cyclopropyl)methanone]
100 to 1000 | < 500 | COC(=O)N1c2ccc(-c3cnn(C4CCNCC4)c3)c(Oc3cc(F)cc(F)c3)c2CC[C@@H]1C [I-182, (S)-methyl 5-(3,5-difluorophenoxy)-2-methyl-6-(1-(piperidin-4-yl)-1H-pyrazol-4-yl)-3,4-dihydroquinoline-1(2H)-carboxylate]
100 to 1000 | < 500 | C[C@H]1CCc2c(ccc(-c3cnn(C4CCNCC4)c3)c2Oc2cc(F)cc(F)c2)N1C(=O)C1CC1 [I-183, (S)-cyclopropyl(5-(3,5-difluorophenoxy)-2-methyl-6-(1-(piperidin-4-yl)-1H-pyrazol-4-yl)-3,4-dihydroquinolin-1(2H)-yl)methanone]
100 to 1000 | < 500 | C[C@H]1CCc2c(ccc(-c3nnc(N)s3)c2Oc2ccccc2)N1C(=O)C1CC1 [I-184, (S)-(6-(5-amino-1,3,4-thiadiazol-2-yl)-2-methyl-5-phenoxy-3,4-dihydroquinolin-1(2H)-yl)(cyclopropyl)methanone]
